Experimental data: US8901118B2, “Compounds and methods for kinase modulation, and indications therefor” (Plexxikon Inc., priority 2010, dated 2014)

Tests used:
Fms kinase = Fms kinase (Homo sapiens, UniProt P07333); experiment: Fms kinase biochemical activity assay (AlphaScreen, biotin-(E4Y)10 phosphorylation); conditions: 100 μM ATP; read-out: Biochemical Inhibition IC50 Fms
Procedure, shortened: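 AlphaScreen read-out (PY20 acceptor, streptavidin donor beads, EDTA stop) of biotin-(E4Y)10 phosphorylation, with IC50 taken from the concentration–signal curve. Reaction: 30 nM substrate, 100 μM ATP, 1 ng/well Fms, Hepes pH 7.5 with Mg2+/Mn2+, 5% DMSO, 20 min at 30 °C.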

CYP2D6 = CYP2D6 (Homo sapiens, UniProt P10635); experiment: CYP2D6 inhibition (fluorescent substrate AMMC); type: in vitro ADME; conditions: read-out: Cyp IC50 2D6
Procedure, shortened: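 IC50 derives from metabolite fluorescence against compound concentration, read at excitation 409 nm and emission 460 nm for CYP1A2/2C19 or 530 nm for CYP2C9/2D6. Incubations ran at 37° C for 15 min (1A2), 45 min (2C9) or 30 min (2C19, 2D6), after serial dilution into NADPH cofactor mix and 10 min preincubation.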

Sequence of CYP2D6 (P10635 whole entry): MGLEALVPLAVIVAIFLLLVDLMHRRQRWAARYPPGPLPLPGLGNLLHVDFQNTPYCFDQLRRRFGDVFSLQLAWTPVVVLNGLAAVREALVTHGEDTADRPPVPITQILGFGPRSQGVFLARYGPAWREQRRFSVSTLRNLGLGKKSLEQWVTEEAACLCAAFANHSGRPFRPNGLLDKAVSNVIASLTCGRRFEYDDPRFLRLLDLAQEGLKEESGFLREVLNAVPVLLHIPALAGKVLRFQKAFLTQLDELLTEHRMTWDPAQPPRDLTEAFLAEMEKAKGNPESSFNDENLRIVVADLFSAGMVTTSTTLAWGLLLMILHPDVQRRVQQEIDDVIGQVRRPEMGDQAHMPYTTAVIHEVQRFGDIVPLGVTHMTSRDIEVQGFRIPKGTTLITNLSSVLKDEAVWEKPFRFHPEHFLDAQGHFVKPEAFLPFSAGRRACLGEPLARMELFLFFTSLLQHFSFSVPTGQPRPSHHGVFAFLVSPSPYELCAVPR
Sequence of Fms kinase (P07333 20-972): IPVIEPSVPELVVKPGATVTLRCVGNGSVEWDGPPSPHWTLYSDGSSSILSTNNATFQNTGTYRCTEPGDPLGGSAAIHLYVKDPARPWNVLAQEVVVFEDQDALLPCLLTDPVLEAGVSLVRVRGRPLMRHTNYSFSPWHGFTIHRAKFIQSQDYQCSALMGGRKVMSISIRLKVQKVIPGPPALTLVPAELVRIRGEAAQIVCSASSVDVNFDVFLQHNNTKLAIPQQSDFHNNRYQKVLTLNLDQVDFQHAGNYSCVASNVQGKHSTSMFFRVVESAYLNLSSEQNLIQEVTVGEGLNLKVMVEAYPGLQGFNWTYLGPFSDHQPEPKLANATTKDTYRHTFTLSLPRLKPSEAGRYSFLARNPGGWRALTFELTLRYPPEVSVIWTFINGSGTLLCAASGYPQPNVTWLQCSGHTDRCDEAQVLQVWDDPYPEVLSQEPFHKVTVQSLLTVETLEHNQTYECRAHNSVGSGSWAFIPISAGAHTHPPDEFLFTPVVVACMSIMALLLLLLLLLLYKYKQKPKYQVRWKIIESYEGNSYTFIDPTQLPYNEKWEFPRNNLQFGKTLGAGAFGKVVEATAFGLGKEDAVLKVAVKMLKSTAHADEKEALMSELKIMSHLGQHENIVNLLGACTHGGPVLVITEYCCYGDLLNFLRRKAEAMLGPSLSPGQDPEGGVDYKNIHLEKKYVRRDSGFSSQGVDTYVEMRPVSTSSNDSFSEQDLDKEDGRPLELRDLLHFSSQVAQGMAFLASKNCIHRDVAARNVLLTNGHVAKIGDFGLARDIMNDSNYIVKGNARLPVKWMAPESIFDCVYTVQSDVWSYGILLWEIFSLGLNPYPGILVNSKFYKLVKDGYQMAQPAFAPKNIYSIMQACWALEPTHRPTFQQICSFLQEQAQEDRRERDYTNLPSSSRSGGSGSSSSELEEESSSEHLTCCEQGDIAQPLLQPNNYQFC

Row | IC50 (Fms kinase) [µM] | IC50 (CYP2D6) [µM] | SMILES
1 | < 0.01 | > 10 | CCOc1ncnc2[nH]cc(Cc3ccc(Nc4ccc(C)nc4)nc3F)c12 [Compound P-4017, [5-(4-Ethoxy-7H-pyrrolo[2,3-d]pyrimidin-5-ylmethyl)-6-fluoro-pyridin-2-yl]-(6-methyl-pyridin-3-yl)-amine]
2 | < 0.01 | > 10 | CCOc1ncnc2[nH]cc(Cc3ccc(Nc4ccc(OC)nc4)nc3F)c12 [Compound P-4018, [5-(4-Ethoxy-7H-pyrrolo[2,3-d]pyrimidin-5-ylmethyl)-6-fluoro-pyridin-2-yl]-(6-methoxy-pyridin-3-yl)-amine]
3 | < 0.01 | > 10 | COCCOc1ncnc2[nH]cc(Cc3ccc(Nc4ccc(OC)nc4)nc3F)c12 [Compound P-4019, {6-Fluoro-5-[4-(2-methoxy-ethoxy)-7H-pyrrolo[2,3-d]pyrimidin-5-ylmethyl]-pyridin-2-yl}-(6-methoxy-pyridin-3-yl)-amine]
4 | < 0.1 | 5 to 10 | COc1ccc(Nc2ccc(C(=O)c3c[nH]c4ncnc(C5CC5)c34)c(F)n2)cn1 [Compound P-4022, (4-cyclopropyl-7H-pyrrolo[2,3-d]pyrimidin-5-yl)-[2-fluoro-6-(6-methoxy-pyridin-3-ylamino)-pyridin-3-yl]-methanone]
5 | < 1 | > 10 | CCOc1ccc(Nc2ccc(C(=O)c3c[nH]c4ncnc(OC)c34)c(F)n2)cn1 [Compound P-4024, [6-(6-Ethoxy-pyridin-3-ylamino)-2-fluoro-pyridin-3-yl]-(4-methoxy-7H-pyrrolo[2,3-d]pyrimidin-5-yl)-methanone]
6 | < 1 | > 10 | CCOc1ncnc2[nH]cc(C(=O)c3ccc(Nc4ccc(OC)nc4)nc3F)c12 [Compound P-4025, (4-Ethoxy-7H-pyrrolo[2,3-d]pyrimidin-5-yl)-[2-fluoro-6-(6-methoxy-pyridin-3-ylamino)-pyridin-3-yl]-methanone]
7 | < 0.01 | > 10 | CCc1ccc(Nc2ccc(C(=O)c3c[nH]c4ncnc(C5CC5)c34)c(F)n2)cn1 [Compound P-4029, (4-Cyclopropyl-7H-pyrrolo[2,3-d]pyrimidin-5-yl)-[6-(6-ethyl-pyridin-3-ylamino)-2-fluoro-pyridin-3-yl]-methanone]
8 | < 0.1 | < 5 | Cc1ccc(Nc2ccc(C(=O)c3c[nH]c4ncnc(C5CC5)c34)c(F)n2)cn1 [Compound P-4031, (4-Cyclopropyl-7H-pyrrolo[2,3-d]pyrimidin-5-yl)-[2-fluoro-6-(6-methyl-pyridin-3-ylamino)-pyridin-3-yl]-methanone]

Continued, compound first:

Row | SMILES | IC50 (Fms kinase) [µM] | IC50 (CYP2D6) [µM]
9 | CCOc1ncnc2[nH]cc(Cc3ccc(Nc4cnn(CC)c4)nc3F)c12 [Compound P-4012, [5-(4-Ethoxy-7H-pyrrolo[2,3-d]pyrimidin-5-ylmethyl)-6-fluoro-pyridin-2-yl]-(1-ethyl-1H-pyrazol-4-yl)-amine] | < 0.01 | > 10
10 | CCn1cc(Nc2ccc(Cc3c[nH]c4ncnc(C)c34)c(F)n2)cn1 [Compound P-4013, (1-Ethyl-1H-pyrazol-4-yl)-[6-fluoro-5-(4-methyl-7H-pyrrolo[2,3-d]pyrimidin-5-ylmethyl)-pyridin-2-yl]-amine] | < 0.01 | > 10
11 | CCn1cc(Nc2ccc(Cc3c[nH]c4ncnc(OCCOC)c34)c(F)n2)cn1 [Compound P-4014, (1-Ethyl-1H-pyrazol-4-yl)-{6-fluoro-5-[4-(2-methoxy-ethoxy)-7H-pyrrolo[2,3-d]pyrimidin-5-ylmethyl]-pyridin-2-yl}-amine] | < 0.01 | < 5
12 | COCCOc1ncnc2[nH]cc(Cc3ccc(Nc4ccc(C)nc4)nc3F)c12 [Compound P-4015, {6-Fluoro-5-[4-(2-methoxy-ethoxy)-7H-pyrrolo[2,3-d]pyrimidin-5-ylmethyl]-pyridin-2-yl}-(6-methyl-pyridin-3-yl)-amine] | < 0.1 | > 10
13 | CCc1ccc(Nc2ccc(Cc3c[nH]c4ncnc(OCCOC)c34)c(F)n2)cn1 [Compound P-4016, (6-Ethyl-pyridin-3-yl)-{6-fluoro-5-[4-(2-methoxy-ethoxy)-7H-pyrrolo[2,3-d]pyrimidin-5-ylmethyl]-pyridin-2-yl}-amine] | < 0.01 | > 10
14 | COc1ccc(Nc2ccc(Cc3c[nH]c4ncnc(C5CC5)c34)c(F)n2)cn1 [Compound P-4023, [5-(4-cyclopropyl-7H-pyrrolo[2,3-d]pyrimidin-5-ylmethyl)-6-fluoro-pyridin-2-yl]-(6-methoxy-pyridin-3-yl)-amine] | < 0.01 | 5 to 10
15 | CCc1ccc(Nc2ccc(Cc3c[nH]c4ncnc(C5CC5)c34)c(F)n2)cn1 [Compound P-4028, [5-(4-Cyclopropyl-7H-pyrrolo[2,3-d]pyrimidin-5-ylmethyl)-6-fluoro-pyridin-2-yl]-(6-ethyl-pyridin-3-yl)-amine] | < 0.01 | > 10
16 | Cc1ccc(Nc2ccc(Cc3c[nH]c4ncnc(C5CC5)c34)c(F)n2)cn1 [Compound P-4030, [5-(4-Cyclopropyl-7H-pyrrolo[2,3-d]pyrimidin-5-ylmethyl)-6-fluoro-pyridin-2-yl]-(6-methyl-pyridin-3-yl)-amine] | < 0.01 | > 10
17 | CCn1cc(Nc2ccc(Cc3c[nH]c4ncnc(C5CC5)c34)c(F)n2)cn1 [Compound P-4036, [5-(4-Cyclopropyl-7H-pyrrolo[2,3-d]pyrimidin-5-ylmethyl)-6-fluoro-pyridin-2-yl]-(1-ethyl-1H-pyrazol-4-yl)-amine] | < 0.01 | > 10
18 | CCn1cc(Nc2ccc(C(=O)c3c[nH]c4ncnc(C5CC5)c34)c(F)n2)cn1 [Compound P-4037, (4-Cyclopropyl-7H-pyrrolo[2,3-d]pyrimidin-5-yl)-[6-(1-ethyl-1H-pyrazol-4-ylamino)-2-fluoro-pyridin-3-yl]-methanone] | < 0.1 | > 10
19 | Fc1nc(NC2CCC(F)(F)CC2)ccc1Cc1c[nH]c2ncnc(NCC(F)(F)F)c12 [Compound P-4128, 5-[[6-[(4,4-difluorocyclohexyl)amino]-2-fluoro-3-pyridyl]methyl]-N-(2,2,2-trifluoroethyl)-7H-pyrrolo[2,3-d]pyrimidin-4-amine] | < 0.1 | > 10
20 | Fc1nc(NC2CCC(F)(F)CC2)ccc1Cc1c[nH]c2ncnc(NC3CC3)c12 [Compound P-4129, N-cyclopropyl-5-[[6-[(4,4-difluorocyclohexyl)amino]-2-fluoro-3-pyridyl]methyl]-7H-pyrrolo[2,3-d]pyrimidin-4-amine] | < 0.1 | 5 to 10
21 | Fc1nc(Nc2ccc(C3CC3)nc2)ccc1Cc1c[nH]c2ncnc(NCC(F)(F)F)c12 [Compound P-4130, 5-[[6-[(6-cyclopropyl-3-pyridyl)amino]-2-fluoro-3-pyridyl]methyl]-N-(2,2,2-trifluoroethyl)-7H-pyrrolo[2,3-d]pyrimidin-4-amine] | < 0.01 | > 10
